Reference: patent US8338333B1, “Methods for controlling weeds including kudzu” (priority 2009, dated 2012)

How the values were obtained:
kudzu [1] = settings: thirteen applications over a five year period; cited from earlier work
kudzu [2] = experiment: Field trial (Holcomb): kudzu regrowth, green biomass dry weight per plot; assay type: in vivo, Pueraria montana (Lour.) Merr. variety lobata (Willd.); settings: 6 WAT, applied mid September at maximum labeled rates, untreated control .81, Lsd .41
Description: Field trials: Uniform areas of land infested with kudzu were identified in Holcomb and Yazoo City, Miss. Plots were one by two meters separated by a narrow strip to prevent cross-contamination of herbicides in Holcomb. Plots were three by three meters in Yazoo City. Herbicides were applied with an hand held boom sprayer equipped with a Teejet 8002 EVS flat fan nozzles, adjusted to 207 kPa, and applied at 1.3 m/s in a single pass to deliver 61.2 L/ha to the treatment areas. Commercial formulations of herbicides were applied at their maximum labeled rates. Herbicides were applied to both sites in mid September. In Holcomb, vegetation within a 0.3 m^2 area of each test plot was harvested at 6 weeks after treatment. Green plant matter was collected and dried as an estimate of above-ground healthy biomass. Biomass of treated plots was compared to untreated plots to determine percent control. In Yazoo City, the percentage reduction in leaf cover was determined by counting the number of leaves intersected by a grid containing 100 intersections (at 10 centimeter intervals) per one meter square.
Translocation of herbicides to roots is vital to achieving control of established perennial species like kudzu having deep root systems and a high capacity for regrowth. Other weeds such as redvine, silverleaf nightshade, and yellow and purple nutsedge with deep perenniating underground structures may also be more easily controlled. Without being bound by theory, the field application occurred in September when carbon allocation in kudzu shifts to root reserve replenishment which could facilitate herbicide translocation and may account for the greater activity of the combination of trifloxysulfuron and glyphosate on suppressing regrowth.

kudzu [3] = experiment: Greenhouse trial: kudzu control by reduction of above-ground green biomass; assay type: in vivo, Pueraria montana (Lour.) Merr. variety lobata (Willd.); settings: 2 WAT, vs untreated plants, dry weight basis, rate (units/A) differs per treatment as in Table 1
Description: (§1) Greenhouse trials: Kudzu was established from seed in flats containing a 2:3 (w:w) mixture of soil (Bosket silt clay loam, fine-silty, mixed thermic Aeric Ochraqualf) and potting media. Seedlings were transferred to 10 cm diameter pots containing the same soil mixture when they developed two true leaves. Pots were placed in the greenhouse, set at 30°±2° C., and equipped with supplemental lighting to provide a 14-h photoperiod. Pots were irrigated as needed and fertilized every three weeks with slow release Osmocote® fertilizer at 1.5 g/pot. […] Plants were selected for size uniformity from a population of approximately three times that necessary to establish a test.
(§2) Herbicides were applied with a pneumatic track sprayer with a TeeJet 8002 flat-fan nozzle delivering 187 L/ha water at 179 kPa. The rates utilized in this study were based on the allowable rates according to the label of the herbicide containers. Kudzu was evaluated for herbicide injury expressed as the percentage of above-ground green biomass remaining at 2 weeks after treatment (WAT) compared to untreated plants (control) on a dry weight basis. Treatments were arranged in a randomized complete block design with four replications and the experiment was repeated. Data were analyzed using the Proc Mixed procedure in SAS and means were separated using a Fisher's Protected least significant difference (LSD) at P=0.05.
In greenhouse studies, shoot biomass was determined at 2 WAT. […] For those skilled in the art of weed control, enhanced control resulting from glyphosate and an ALS inhibitor would not be expected. […] Those with high initial activity against kudzu may provide suitable kudzu control when mixed with glyphosate.

mature kudzu vines = experiment: Field: post-emergence application to mature kudzu stands (FIG. 4); assay type: in vivo, Pueraria montana (Lour.) Merr. variety lobata (Willd.); settings: 3 WAT, single post-emergence application, rates per Table 4
Description: The labeled recommended rate of glyphosate, for kudzu control was 80 to 106 ounces per acre which was well above the rates tested herein. ALS inhibitors were used at label rates. Post-emergence applications of the treatments listed in Table 4 were made to mature kudzu stands growing over a Bermuda grass turf. […] When ALS inhibitors were applied alone, less than 10% control was observed 3 WAT, whereas glyphosate alone provided less than 26% control.

kudzu [4] = experiment: Glyphosate and trifloxysulfuron at reduced rates on kudzu (Example 2); assay type: in vivo, Pueraria montana (Lour.) Merr. variety lobata (Willd.)
Description: as §1, §2
The labeled recommended rate of glyphosate for kudzu control was 80 to 106 ounces per acre which was well above the rates tested herein. In Table 2 the rates were 8, 16 and 22 oz formulated glyphosate (WeatherMax™) per acre with trifloxysulfuron at 4.25 grams per acre. The ability to achieve control of kudzu at reduced rates of herbicide was a further indication that a unique effect was observed and allowed control using less pesticide.

Structure (SMILES)	Kudzu Regrowth Gram dry wgt per plot (kudzu [2])	Control (%), kudzu control based on percent reduction of above-ground green biomass (kudzu [3]) [%]	other results
O=C(O)COc1cc(Cl)c(Cl)cc1Cl [2,4,5-trichlorophenoxyacetic acid]	–	–	killing of all kudzu crowns (kudzu [1]): not successful in killing all crowns
CCNc1nc(Cl)nc(NC(C)C)n1 [atrazine]	.59 Gram dry wgt per plot	–	–
CCOc1nc(F)cc2nc(S(=O)(=O)Nc3c(Cl)cccc3C(=O)O)nn12 [chloransulam]	–	11	–
COc1cc(Cl)nc(NC(=O)NS(=O)(=O)c2ccccc2C(=O)O)n1 [chlorimuron]	–	0	–
O=C(O)CNCP(=O)(O)O [glyphosate]	.52 Gram dry wgt per plot	–	control of mature kudzu (mature kudzu vines): less than 26%; Kudzu Control (%) (kudzu [4]; glyphosate 0.35 lb./A alone): 33%; Kudzu Control (%) (kudzu [4]; glyphosate 0.7 lb./A alone): 95%; Kudzu Control (%) (kudzu [4]; glyphosate 1 lb./A alone): 97%
CSc1nnc(C(C)(C)C)c(=O)n1N [metribuzin]	.51 Gram dry wgt per plot	–	–
COc1nc(C)nc(NC(=O)NS(=O)(=O)c2ccccc2C(=O)O)n1 [metsulfuron]	–	87	–
COc1cc(OC)nc(NC(=O)NS(=O)(=O)c2ncccc2OCC(F)(F)F)n1 [trifloxysulfuron]	–	93	Kudzu Control (%) (kudzu [4]; trifloxysulfuron 4.25 g/A alone): 72%
